Data taken from patent US7629154B2, “Deinococcus N-acylamino acid racemase and use of preparing L-amino acid” (National Chunghsing University, priority 2005, dated 2009).
Where two headings read alike, the source gives them in different places. Each block holds one compound with its values, some of them ahead of it.

Columns and labels:
[1] = molecular target: T1, N-acylamino acid racemase (NAAAR) (Deinococcus radiodurans, UniProt Q9RYA6, A252S/A94S/G148D/K158R/P315S); format: biochemical, Deinococcus radiodurans NCHU1003
[2] = test system: L-N-carbamoylase/N-acylamino acid racemase; assay: Conversion of NCa-D-HPA with enzymes L-N-carbamoylase/N-acylamino acid racemase; format: biochemical; settings: start 10 mM N-carbamoyl-D-HPA, 50° C., pH 8.0
From the text: NCAU (5′-[…]-3′, SEQ ID NO: 5), containing BamHI restriction site; and NCAD (5′-[…]-3′, SEQ ID NO:6), containing HindIII restriction site. The nucleotide sequences encoding the NAAAR and L-N-carbamoylase were amplified from Deinococcus radiodurans NCHU1003 and Bacillus kaustophilus CCRC11223 chromosome, respectively, by PCR technology. The PCR products contained T5 promoter, lac operator and 6×his-tag sequence at the 5′-end and A transcriptional terminator at the 3′-end. The PCR products were cloned in the pQE30 expression vector. The resultant plasmid, pQEarlnca, was transformed into E. coli JM109 for inductive expression.
The reaction mixture containing 10 mM substrate N-carbamoyl-D-HPA, 0.5 mM CoCl2, 50 mM Tris-HCl buffer (pH 8.0), and the enzymes NAAAR and L-N-carbamoylase isolated from induced transformant was incubated at 50° C. for carrying out the conversion. After analysed by the Chiral-HPLC method, it is shown that the co-expressed enzymes could completely convert the original substrate to the final product L-amino acid in 2 to 3 h in one single reaction.

[3] = molecular target: T1, N-acylamino acid racemase (NAAAR); assay: Substrate selectivity / enzymetic activity of NAAAR by Chiral-HPLC; format: biochemical, Deinococcus radiodurans NCHU1003; settings: for Specific activity: 10 mM substrate, 0.5 mM CoCl2, 50 mM Tris-HCl pH 8.0, 50° C., 30 min; for Relative activity: percentage of the enzyme activity using N-acetyl-D-Met as substrate
Experimental: The enzymetic activity was determined by measuring the production profile of conversion product at 215 nm via HPLC method as described by Tokuyama et al (1994). The reaction buffer containing 10 mM substrate, 0.5 mM CoCl2 and appropriate amount of the enzyme in 50 mM Tris-HCl buffer (pH 8.0) was incubated at 50° C. for 30 min, and the reaction was terminated by placing in boiling water for 5 min. The enzymetic activity was then measured by a Chiral-HPLC method. The Km values (mM) were determined from the original velocity data and the changes in NAc-D-HPA or NAc-D-HPA concentration. The unit NAAAR activity was defined as the enzyme amount required for catalysing 1 μmole of product formation under used condition. As described in the following Table 1, the specific activity of NAAAR for substrate N-carbamoyl-D-HPA was 1.31 U/mg, see Table 1.

[4] = compound at 2 mM, percentage of activity with CoCl2, substrate 10 mM N-carbamoyl-D-HPA, 50° C., 30 min

T1 sequence (Q9RYA6 whole entry A94S/G148D/K158R/A252S/P315S): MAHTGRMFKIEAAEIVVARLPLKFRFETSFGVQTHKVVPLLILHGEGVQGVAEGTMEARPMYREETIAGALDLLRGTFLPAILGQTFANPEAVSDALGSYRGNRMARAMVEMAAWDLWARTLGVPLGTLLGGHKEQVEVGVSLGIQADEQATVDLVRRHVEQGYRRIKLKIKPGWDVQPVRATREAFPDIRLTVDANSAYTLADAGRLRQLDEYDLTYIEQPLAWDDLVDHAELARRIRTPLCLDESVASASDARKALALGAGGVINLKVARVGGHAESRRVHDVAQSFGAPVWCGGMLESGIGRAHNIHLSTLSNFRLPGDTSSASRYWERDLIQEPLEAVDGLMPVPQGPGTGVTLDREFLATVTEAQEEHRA

Structure (SMILES): [Ca+2].[Cl-].[Cl-] [CaCl2]
Relative activity [1, 4]: 0%

Structure (SMILES): [Cl-].[Cl-].[Co+2] [CoCl2]
Effect of bivalent metal ion on NAAAR enzymetic activity [1]: improved enzymetic activity
Relative activity [1]: 100%

Structure (SMILES): [Cl][Cu][Cl] [CuCl2]
Relative activity [1, 4]: 0%

Structure (SMILES): O=C(O)CN(CCN(CC(=O)O)CC(=O)O)CC(=O)O [EDTA]
Relative activity ([1]; compound at 10 mM, percentage of activity with CoCl2, substrate 10 mM N-carbamoyl-D-HPA, 50° C., 30 min): 0%

Concentration in conversion reaction ([2]; time 0.5 hour): 4.96 mM
Concentration in conversion reaction ([2]; time 1.0 hour): 8.84 mM
Concentration in conversion reaction ([2]; time 2.0 hour): 10 mM
Structure (SMILES): N[C@@H](CCc1ccccc1)C(=O)O [L-HPA, L-homophenylalanine]

Structure (SMILES): [Cl-].[Cl-].[Mg+2] [MgCl2]
Relative activity [1, 4]: 20.5%

Structure (SMILES): [Cl][Mn][Cl] [MnCl2]
Relative activity [1, 4]: 79.1%
Effect of bivalent metal ion on NAAAR enzymetic activity ([1]; in words): improved enzymetic activity

Structure (SMILES): CC(=O)N[C@H](CCc1ccccc1)C(=O)O [N-acetyl-D-HPA]
Specific activity [3]: 9.17 U/mg
Relative activity [3]: 143.28%

Structure (SMILES): CSCC[C@@H](NC(C)=O)C(=O)O [N-acetyl-D-Met]
Specific activity [3]: 6.40 U/mg
Relative activity [3]: 100%

Structure (SMILES): CC(=O)N[C@H](Cc1ccccc1)C(=O)O [N-acetyl-D-Phe]
Specific activity [3]: 1.98 U/mg
Relative activity [3]: 30.94%

Structure (SMILES): CC(=O)N[C@@H](CCC(N)=O)C(=O)O [N-acetyl-L-Gln]
Specific activity [3]: 0.93 U/mg
Relative activity [3]: 14.53%

Structure (SMILES): CC(=O)N[C@@H](CCc1ccccc1)C(=O)O [N-acetyl-L-HPA]
Specific activity [3]: 11.97 U/mg
Relative activity [3]: 187.03%

Structure (SMILES): CC(=O)N[C@@H](CC(C)C)C(=O)O [N-acetyl-L-Leu]
Specific activity [3]: 0.45 U/mg
Relative activity [3]: 7.03%

Structure (SMILES): CSCC[C@H](NC(C)=O)C(=O)O [N-acetyl-L-Met]
Specific activity [3]: 8.04 U/mg
Relative activity [3]: 125.63%

Structure (SMILES): CC(=O)N[C@@H](Cc1ccccc1)C(=O)O [N-acetyl-L-Phe]
Specific activity [3]: 1.55 U/mg
Relative activity [3]: 24.22%

Structure (SMILES): CC(=O)N[C@@H](Cc1c[nH]c2ccccc12)C(=O)O [N-acetyl-L-Trp]
Specific activity [3]: 0.87 U/mg
Relative activity [3]: 13.13%

Structure (SMILES): [2H]NC(=O)N[C@@H](CCc1ccccc1)C(=O)O [N-carbamoyl-D-HPA]
Specific activity [3]: 1.31 U/mg
Relative activity [3]: 20.46%
Concentration in conversion reaction ([2]; time 0.5 hour): 4.16 mM
Concentration in conversion reaction ([2]; time 1.0 hour): 1.16 mM
Concentration in conversion reaction ([2]; time 2.0 hour): 0 mM

Structure (SMILES): NC(=O)N[C@@H](CCc1ccccc1)C(=O)O [N-carbamoyl-L-HPA]
Specific activity [3]: 1.91 U/mg
Relative activity [3]: 29.84%
Concentration in conversion reaction ([2]; time 0.5 hour): 0.88 mM
Concentration in conversion reaction ([2]; time 1.0 hour): 0 mM
Concentration in conversion reaction ([2]; time 2.0 hour): 0 mM

Structure (SMILES): O=C(CCl)N[C@@H](Cc1ccccc1)C(=O)O [N-chloroacetyl-L-Phe]
Specific activity [3]: 1.16 U/mg
Relative activity [3]: 18.13%

Structure (SMILES): [Cl][Ni][Cl] [NiCl2]
Relative activity [1, 4]: 40.6%
Effect of bivalent metal ion on NAAAR enzymetic activity ([1]; in words): improved enzymetic activity

Structure (SMILES): [Cl-].[Cl-].[Zn+2] [ZnCl2]
Relative activity [1, 4]: 19.7%
